According to ChEMBL document CHEMBL5465560, “Selectivity Literature for EUbOPEN Chemogenomic Library” (2024):
Blank lines part the entries; values can stand above or below the compound they belong to.

Assays:
[1] = biological target: T1, Interleukin-1 receptor-associated kinase 4 (Homo sapiens) (UniProt Q9NWZ3); experiment: Selectivity interaction (KinomeScan (DiscoverX)) EUB0001049a IRAK4; details: at 1 µM
T1 sequence (whole entry): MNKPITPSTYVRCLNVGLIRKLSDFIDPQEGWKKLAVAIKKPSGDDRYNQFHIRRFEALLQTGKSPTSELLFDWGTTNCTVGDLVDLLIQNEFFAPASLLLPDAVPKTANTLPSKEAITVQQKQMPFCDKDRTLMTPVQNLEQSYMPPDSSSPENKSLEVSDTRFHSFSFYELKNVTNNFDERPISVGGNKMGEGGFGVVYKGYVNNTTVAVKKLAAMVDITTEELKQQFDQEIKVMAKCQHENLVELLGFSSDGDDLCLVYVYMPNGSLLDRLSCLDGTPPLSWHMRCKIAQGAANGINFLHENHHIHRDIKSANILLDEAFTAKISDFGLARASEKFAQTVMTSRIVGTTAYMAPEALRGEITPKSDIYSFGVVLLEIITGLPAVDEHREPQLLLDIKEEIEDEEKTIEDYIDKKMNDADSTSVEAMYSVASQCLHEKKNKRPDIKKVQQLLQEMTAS

[2] = biological target: T2, Serine/threonine-protein kinase PLK4 (Homo sapiens) (UniProt O00444); experiment: Selectivity interaction (KinomeScan (DiscoverX)) EUB0000595a PLK4; details: at 10 µM
T2 sequence (whole entry): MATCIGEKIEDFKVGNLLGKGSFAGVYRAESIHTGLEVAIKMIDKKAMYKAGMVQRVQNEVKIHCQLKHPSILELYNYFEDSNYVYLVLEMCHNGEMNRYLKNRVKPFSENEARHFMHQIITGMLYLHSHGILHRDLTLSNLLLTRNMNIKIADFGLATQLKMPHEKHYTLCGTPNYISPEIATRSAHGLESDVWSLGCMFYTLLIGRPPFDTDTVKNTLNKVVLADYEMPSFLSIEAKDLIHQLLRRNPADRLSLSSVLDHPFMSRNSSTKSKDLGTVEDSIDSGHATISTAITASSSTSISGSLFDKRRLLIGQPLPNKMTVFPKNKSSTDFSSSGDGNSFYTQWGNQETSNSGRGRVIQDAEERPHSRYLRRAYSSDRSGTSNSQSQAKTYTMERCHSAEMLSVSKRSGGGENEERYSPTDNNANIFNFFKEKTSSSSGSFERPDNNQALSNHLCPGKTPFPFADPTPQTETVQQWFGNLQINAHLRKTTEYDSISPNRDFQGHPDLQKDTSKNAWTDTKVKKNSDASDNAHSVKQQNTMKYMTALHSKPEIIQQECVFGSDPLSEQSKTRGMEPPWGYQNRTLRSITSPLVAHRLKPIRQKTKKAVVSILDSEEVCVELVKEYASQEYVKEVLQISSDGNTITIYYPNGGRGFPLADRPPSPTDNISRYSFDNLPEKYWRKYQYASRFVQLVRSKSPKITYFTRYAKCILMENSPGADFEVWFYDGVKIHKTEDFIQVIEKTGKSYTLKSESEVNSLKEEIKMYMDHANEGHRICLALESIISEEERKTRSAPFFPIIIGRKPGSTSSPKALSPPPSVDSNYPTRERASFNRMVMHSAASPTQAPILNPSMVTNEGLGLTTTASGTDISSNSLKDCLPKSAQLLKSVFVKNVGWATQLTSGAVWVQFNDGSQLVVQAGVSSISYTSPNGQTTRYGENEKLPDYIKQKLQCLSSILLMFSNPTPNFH

[3] = biological target: Transcription initiation factor TFIID subunit 1 (Homo sapiens) (UniProt P21675); experiment: Selectivity interaction (Human bromodomain panel (DSF assay)) EUB0000233b TAF1
[4] = biological target: T3, Dual specificity mitogen-activated protein kinase kinase 6 (Homo sapiens) (UniProt P52564); experiment: Selectivity interaction (ActivX KiNativ screen (ex vivo kinase selectivity in human PBMCs)) EUB0001619a MAP2K6; format: cell-based; details: PBMC, at 1 µM
T3 sequence (whole entry): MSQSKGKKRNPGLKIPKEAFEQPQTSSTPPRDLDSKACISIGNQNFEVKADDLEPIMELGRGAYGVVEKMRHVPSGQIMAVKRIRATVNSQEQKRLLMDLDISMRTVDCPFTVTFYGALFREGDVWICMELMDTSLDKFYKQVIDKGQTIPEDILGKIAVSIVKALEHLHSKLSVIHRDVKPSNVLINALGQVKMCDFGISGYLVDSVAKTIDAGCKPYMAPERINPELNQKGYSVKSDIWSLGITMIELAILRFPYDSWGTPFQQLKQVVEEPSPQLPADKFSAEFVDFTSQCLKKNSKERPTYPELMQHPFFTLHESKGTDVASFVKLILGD

[5] = biological target: T4, Tyrosine-protein kinase ITK/TSK (Homo sapiens) (UniProt Q08881); experiment: Selectivity interaction (KinomeScan (DiscoverX)) EUB0000618a ITK; details: at 10 µM
T4 sequence (whole entry): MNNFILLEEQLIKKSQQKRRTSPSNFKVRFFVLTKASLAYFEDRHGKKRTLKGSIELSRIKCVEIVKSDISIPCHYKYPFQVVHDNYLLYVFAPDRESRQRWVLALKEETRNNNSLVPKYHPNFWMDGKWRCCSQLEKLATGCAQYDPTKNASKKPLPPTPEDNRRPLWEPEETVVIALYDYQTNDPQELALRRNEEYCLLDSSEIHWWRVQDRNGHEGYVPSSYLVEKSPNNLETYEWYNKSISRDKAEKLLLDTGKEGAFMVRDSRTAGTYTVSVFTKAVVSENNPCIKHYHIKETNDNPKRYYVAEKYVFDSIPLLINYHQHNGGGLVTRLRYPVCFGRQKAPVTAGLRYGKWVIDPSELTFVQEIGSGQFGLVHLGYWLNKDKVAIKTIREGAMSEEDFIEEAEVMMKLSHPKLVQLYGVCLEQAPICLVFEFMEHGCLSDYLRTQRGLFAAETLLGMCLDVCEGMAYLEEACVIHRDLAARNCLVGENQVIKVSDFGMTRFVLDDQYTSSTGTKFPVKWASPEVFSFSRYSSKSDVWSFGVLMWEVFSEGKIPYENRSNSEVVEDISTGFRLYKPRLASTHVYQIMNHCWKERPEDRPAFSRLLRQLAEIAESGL

[6] = biological target: Mitogen-activated protein kinase 7 (Homo sapiens) (UniProt Q13164); experiment: Selectivity interaction (KinomeScan (DiscoverX)) EUB0000618a MAPK7; details: at 10 µM
[7] = biological target: Tyrosine-protein kinase ABL2 (Homo sapiens, UniProt P42684); experiment: Selectivity interaction (KinomeScan (DiscoverX)) EUB0000666a ABL2; details: at 10 µM
Sequence of Tyrosine-protein kinase ABL2 (P42684 whole entry): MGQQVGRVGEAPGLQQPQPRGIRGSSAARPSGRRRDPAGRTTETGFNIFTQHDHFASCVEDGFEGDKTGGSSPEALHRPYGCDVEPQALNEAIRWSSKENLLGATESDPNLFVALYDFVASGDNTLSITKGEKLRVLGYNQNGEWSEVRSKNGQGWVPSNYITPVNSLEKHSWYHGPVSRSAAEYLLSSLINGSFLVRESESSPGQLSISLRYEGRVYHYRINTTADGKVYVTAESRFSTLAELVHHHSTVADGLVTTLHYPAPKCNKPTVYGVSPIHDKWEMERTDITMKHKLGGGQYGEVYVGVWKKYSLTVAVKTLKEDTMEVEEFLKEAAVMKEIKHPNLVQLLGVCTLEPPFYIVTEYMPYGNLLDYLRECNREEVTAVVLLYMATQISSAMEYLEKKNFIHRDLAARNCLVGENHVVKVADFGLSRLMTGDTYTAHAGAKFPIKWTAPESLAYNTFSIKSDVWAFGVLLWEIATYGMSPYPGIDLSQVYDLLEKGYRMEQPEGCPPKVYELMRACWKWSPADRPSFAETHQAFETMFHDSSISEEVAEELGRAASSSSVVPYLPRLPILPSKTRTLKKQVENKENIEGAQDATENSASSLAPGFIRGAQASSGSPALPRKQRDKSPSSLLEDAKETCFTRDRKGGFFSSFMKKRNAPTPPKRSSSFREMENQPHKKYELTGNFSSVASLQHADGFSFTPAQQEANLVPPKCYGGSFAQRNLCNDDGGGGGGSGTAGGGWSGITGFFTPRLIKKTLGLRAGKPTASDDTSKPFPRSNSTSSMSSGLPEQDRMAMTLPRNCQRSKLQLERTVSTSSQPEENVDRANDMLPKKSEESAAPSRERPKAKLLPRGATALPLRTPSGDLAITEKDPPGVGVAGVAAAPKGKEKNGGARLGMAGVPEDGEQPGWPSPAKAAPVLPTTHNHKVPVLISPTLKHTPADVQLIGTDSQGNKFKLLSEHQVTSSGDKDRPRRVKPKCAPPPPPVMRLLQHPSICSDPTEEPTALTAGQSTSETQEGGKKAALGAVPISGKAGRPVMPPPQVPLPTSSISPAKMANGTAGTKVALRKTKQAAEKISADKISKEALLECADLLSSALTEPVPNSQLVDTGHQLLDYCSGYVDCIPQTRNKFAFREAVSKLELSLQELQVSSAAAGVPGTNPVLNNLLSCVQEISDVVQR

Sequence of Mitogen-activated protein kinase 7 (Homo sapiens) (Q13164 2-816 limits assumed): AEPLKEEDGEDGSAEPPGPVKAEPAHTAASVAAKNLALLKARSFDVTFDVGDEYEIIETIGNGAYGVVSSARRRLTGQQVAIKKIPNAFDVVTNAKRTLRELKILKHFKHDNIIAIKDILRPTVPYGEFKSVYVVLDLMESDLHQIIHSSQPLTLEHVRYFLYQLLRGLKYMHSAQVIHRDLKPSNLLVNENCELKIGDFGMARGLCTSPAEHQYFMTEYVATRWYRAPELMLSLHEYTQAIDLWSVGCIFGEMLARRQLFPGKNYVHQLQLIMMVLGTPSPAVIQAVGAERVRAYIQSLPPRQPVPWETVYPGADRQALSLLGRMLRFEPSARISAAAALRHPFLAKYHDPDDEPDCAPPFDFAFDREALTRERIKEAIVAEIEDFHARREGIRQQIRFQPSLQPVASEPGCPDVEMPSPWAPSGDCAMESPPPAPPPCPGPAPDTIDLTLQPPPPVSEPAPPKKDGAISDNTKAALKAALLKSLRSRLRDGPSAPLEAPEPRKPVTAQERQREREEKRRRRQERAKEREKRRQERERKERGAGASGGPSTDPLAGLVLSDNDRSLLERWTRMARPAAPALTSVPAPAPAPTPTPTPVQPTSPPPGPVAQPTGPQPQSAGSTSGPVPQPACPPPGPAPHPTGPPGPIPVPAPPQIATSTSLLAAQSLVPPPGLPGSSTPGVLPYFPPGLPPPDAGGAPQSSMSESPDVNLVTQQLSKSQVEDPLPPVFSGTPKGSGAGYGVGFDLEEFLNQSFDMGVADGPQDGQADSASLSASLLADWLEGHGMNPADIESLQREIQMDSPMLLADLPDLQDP
Sequence of Transcription initiation factor TFIID subunit 1 (Homo sapiens) (P21675 whole entry): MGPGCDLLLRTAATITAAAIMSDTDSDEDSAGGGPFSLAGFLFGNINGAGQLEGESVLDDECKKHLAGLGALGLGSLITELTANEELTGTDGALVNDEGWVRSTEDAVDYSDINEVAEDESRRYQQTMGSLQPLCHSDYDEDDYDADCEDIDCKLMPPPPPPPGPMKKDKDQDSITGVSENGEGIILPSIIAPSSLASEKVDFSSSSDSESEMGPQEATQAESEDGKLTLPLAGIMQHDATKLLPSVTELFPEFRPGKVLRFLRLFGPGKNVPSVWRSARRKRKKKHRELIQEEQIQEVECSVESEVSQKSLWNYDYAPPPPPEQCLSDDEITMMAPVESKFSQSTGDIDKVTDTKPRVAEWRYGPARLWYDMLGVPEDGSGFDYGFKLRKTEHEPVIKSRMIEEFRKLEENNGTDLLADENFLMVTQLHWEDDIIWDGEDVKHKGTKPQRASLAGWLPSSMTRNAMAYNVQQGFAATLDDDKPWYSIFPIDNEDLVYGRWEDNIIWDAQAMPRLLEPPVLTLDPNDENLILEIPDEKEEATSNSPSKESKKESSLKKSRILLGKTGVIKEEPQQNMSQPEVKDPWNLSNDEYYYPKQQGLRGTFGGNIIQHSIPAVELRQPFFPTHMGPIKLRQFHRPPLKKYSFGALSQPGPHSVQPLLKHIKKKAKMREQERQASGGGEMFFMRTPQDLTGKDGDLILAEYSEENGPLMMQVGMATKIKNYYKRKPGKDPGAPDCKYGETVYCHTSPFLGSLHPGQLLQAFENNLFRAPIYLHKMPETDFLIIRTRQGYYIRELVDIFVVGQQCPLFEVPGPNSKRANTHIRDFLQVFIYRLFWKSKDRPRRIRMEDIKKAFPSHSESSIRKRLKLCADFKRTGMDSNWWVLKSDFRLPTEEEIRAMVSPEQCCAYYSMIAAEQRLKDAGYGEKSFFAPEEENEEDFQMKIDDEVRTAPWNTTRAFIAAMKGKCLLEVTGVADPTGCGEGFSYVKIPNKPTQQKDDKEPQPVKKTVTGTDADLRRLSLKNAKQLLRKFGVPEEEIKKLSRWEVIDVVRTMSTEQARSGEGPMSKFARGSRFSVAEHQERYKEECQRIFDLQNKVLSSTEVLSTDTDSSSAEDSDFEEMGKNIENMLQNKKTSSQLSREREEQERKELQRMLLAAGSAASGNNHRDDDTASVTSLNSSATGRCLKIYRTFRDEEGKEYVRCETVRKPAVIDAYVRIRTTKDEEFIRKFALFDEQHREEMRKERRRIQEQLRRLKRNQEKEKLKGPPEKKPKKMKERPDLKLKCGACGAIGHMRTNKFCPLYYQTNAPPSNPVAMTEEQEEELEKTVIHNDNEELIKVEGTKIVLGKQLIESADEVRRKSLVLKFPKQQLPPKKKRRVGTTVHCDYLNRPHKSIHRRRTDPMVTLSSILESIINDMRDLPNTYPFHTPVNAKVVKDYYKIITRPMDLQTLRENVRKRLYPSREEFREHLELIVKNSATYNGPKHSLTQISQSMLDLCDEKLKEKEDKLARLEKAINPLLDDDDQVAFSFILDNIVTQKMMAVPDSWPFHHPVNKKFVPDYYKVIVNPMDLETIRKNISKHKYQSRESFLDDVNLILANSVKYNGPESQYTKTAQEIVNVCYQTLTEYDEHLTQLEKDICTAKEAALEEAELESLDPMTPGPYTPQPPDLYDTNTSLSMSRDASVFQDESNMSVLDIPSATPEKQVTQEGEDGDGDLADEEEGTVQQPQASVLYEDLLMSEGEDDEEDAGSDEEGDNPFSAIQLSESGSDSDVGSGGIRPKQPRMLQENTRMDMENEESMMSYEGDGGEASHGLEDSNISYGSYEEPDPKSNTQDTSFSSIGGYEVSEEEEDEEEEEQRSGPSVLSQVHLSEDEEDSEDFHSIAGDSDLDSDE

SMILES: COc1cc(Nc2nc(C)cc(-c3cnn4nc(OC)ccc34)n2)cc(C(F)(F)F)c1
% of control [1]: 87%

SMILES: COCC(=O)NC/C=C/c1ccc2ncnc(Nc3ccc(Oc4ccc(C)nc4)c(C)c3)c2c1 [CP-724714]
% of control [2]: 74%

dTM [3]: < 2 K
SMILES: CN(C)CCCOc1ccc(-c2cc(NCCCn3cccn3)nc(S(C)(=O)=O)n2)cc1

SMILES: N#Cc1cccc(-c2c[nH]c3ncnc(N4CCOCC4)c23)c1
% of inhibition [4]: 14%

SMILES: O[C@H]1CC[C@H](Nc2ncc3nc(Nc4c(F)cc(F)cc4F)n([C@H]4CCOC4)c3n2)CC1
% of control [5]: 100%
% of control [6]: 90%

SMILES: O=C(NOC[C@H](O)CO)c1ccc(F)c(F)c1Nc1ccc(I)cc1F
% of control [7]: 90%
